Source: BindingDB's records for doi:10.1021/acsmedchemlett.9b00381 (Dana-Farber Cancer Institute, 2019)

Key:
[1] = Inhibition of EGFR L858R mutant (unknown origin) expressed in mouse Ba/F3 cells assessed as reduction in cell growth incubated for 72 hrs in presence of 1 ug/ml Cetuximab by celltiter-glo luminescent cell viability assay
[2] = Inhibition of EGFR double T790M/L858R mutant (unknown origin) expressed in mouse Ba/F3 cells assessed as reduction in cell growth incubated for 72 hrs in presence of 1 ug/ml Cetuximab by celltiter-glo luminescent cell viability assay
[3] = Inhibition of EGFR triple T790M/L858R/C797S mutant (unknown origin) expressed in mouse Ba/F3 cells assessed as reduction in cell growth incubated for 72 hrs in presence of 1 ug/ml Cetuximab by celltiter-glo luminescent cell viability assay
[4] = Inhibition of EGFR (unknown origin) expressed in mouse Ba/F3 cells assessed as reduction in cell growth incubated for 72 hrs in presence of 1 ug/ml Cetuximab by celltiter-glo luminescent cell viability assay

SMILES | IC50 [1] [nM] | IC50 [2] [nM] | IC50 [3] [nM] | IC50 [4] [nM]
CN1CCN(c2ccc(Oc3ccc4c(c3)C(=O)N(Cc3ccccc3)c3cc(F)ccc3N4)cc2)CC1 | 2700 | 360 | 200 | 3200
O=C1c2cc(-c3ccc(N4CCNCC4)cc3)ccc2Nc2ccc(F)cc2N1Cc1ccccc1 | 3700 | 770 | 930 | 4100
